One series concerns the target T1, CDK2/cyclin E (Homo sapiens, UniProt P24941).
T1 construct: His; made in house; host or cells: Sf9 insect cells (baculovirus)
As to the kind of experiment: CDK2/Cyclin E kinase assay (GST-Rb phosphorylation, radiolabelled ATP).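 Note: enzyme was His-tagged CDK2/cyclin E co-expressed in baculovirus-infected Sf9 insect cells and purified over a metal-chelate column.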 The series is classed as biochemical.

For the next series, the system named is human tumour cell lines. As to the kind of experiment: cell-based anti-proliferative assays. An excerpt: These assays, including methods for their performance, are described in more detail in Example 3. Using such cell line and enzymes assays it may be determined whether a compound is anti-proliferative in the context of the present invention.
Selected compounds from the above examples were subjected to a standard cellular proliferation assay using a range of different human tumour cell lines. Standard 72-h MTT (thiazolyl blue; 3-[4,5-dimethylthiazol-2-yl]-2,5-diphenyltetrazolium bromide) assays were performed (Haselsberger, K.; Peterson, D. C.; Thomas, D. G.; Darling, J. L. Anti Cancer Drugs 1996, 7, 331–8; Loveland, B. E.; Johns, T. G.; Mackay, I. R.; Vaillant, F.; Wang, Z. X.; Hertzog, P. J. Biochemistry International 1992, 27, 501–10). Human tumour cell lines were obtained from the ATCC (American Type Culture Collection, 10801 University Boulevard, Manessas, Va. 20110-2209, USA).

The next series deals with A549. In words: 72-h MTT cellular proliferation assay, A549. Particulars: human tumour cell line A549, 72-h MTT; read-out: Cytotoxicity (IC50, μM) A549. Type of series: cell-based. An excerpt:
(§1) Selected compounds from the above examples were subjected to a standard cellular proliferation assay using a range of different human tumour cell lines.
For orientation: Tetrazolium assays rely on reduction of a dye to a coloured formazan, in cell work by metabolically active cells.

Another series deals with Saos-2. In words: 72-h MTT cellular proliferation assay, Saos-2. Conditions: human tumour cell line Saos-2, 72-h MTT; read-out: Cytotoxicity (IC50, μM) Saos-2. The series is classed as cell-based.
Excerpt: as §1

In a further series the test system is HT29. As to the kind of experiment: 72-h MTT cellular proliferation assay, HT29. The series is classed as cell-based. Particulars: HT-29; human tumour cell line HT29, 72-h MTT; read-out: Cytotoxicity (IC50, μM) HT29.
Excerpt: as §1

The mark [1] stands for this setting: bound stated, (±0.05), read-out: IC50 for cdk2/cyclinE.

Where two headings read alike, the source gives them in different places.

For `Cc1c[nH]c(C)c1-c1ccnc(Nc2ccc(F)cc2)n1` [Compound 1, [4-(2,4-Dimethyl-1H-pyrrol-3-yl)-pyrimidin-2-yl]-(4-fluoro-phenyl)-amine], the values for the IC50 on CDK2/cyclin E (setting [1]) and at CDK2/cyclin E (read-out: CDK2/cyclin E (IC50)) were under 1 µM and 1 ± 0.7 µM, respectively.
Take `Cc1c[nH]c(C)c1-c1ccnc(Nc2cccc([N+](=O)[O-])c2)n1` [Compound 2]: the “anti-proliferative activity in cell-based assays” value (shortened to “anti-proliferative activity”) in the series on human tumour cell lines is listed as “particularly effective anti-proliferative agents”.
In the case of `Cc1c[nH]c(C)c1-c1ccnc(Nc2ccc(I)cc2)n1` [Compound 3, [4-(2,4-Dimethyl-1H-pyrrol-3-yl)-pyrimidin-2-yl]-(4-iodo-phenyl)-amine], the IC50 is under 0.5 µM at CDK2/cyclin E (setting [1]) and 0.5 µM at CDK2/cyclin E (read-out: CDK2/cyclin E (IC50)).
For `Cc1c[nH]c(C)c1-c1ccnc(Nc2ccc(F)c(F)c2)n1` [Compound 4, (3,4-Difluoro-phenyl)-[4-(2,4-dimethyl-1H-pyrrol-3-yl)-pyrimidin-2-yl]-amine], the IC50 on CDK2/cyclin E (setting [1]) was under 5 µM; at CDK2/cyclin E (read-out: CDK2/cyclin E (IC50)) it was 1.3 ± 0.4 µM.
For `Cc1c[nH]c(C)c1-c1ccnc(Nc2ccc(Cl)cc2)n1` [Compound 5, (4-Chloro-phenyl)-[4-(2,4-dimethyl-1H-pyrrol-3-yl)-pyrimidin-2-yl]-amine], the melting point was in the range of 219 to 223 °C. Moreover, on CDK2/cyclin E (setting [1]), the IC50 was under 5 µM. Besides, the IC50 on CDK2/cyclin E (read-out: CDK2/cyclin E (IC50)) is 1.7 µM.
`Cc1c[nH]c(C)c1-c1ccnc(Nc2cc(F)cc(F)c2)n1` [Compound 6, (3,5-Difluoro-phenyl)-[4-(2,4-dimethyl-1H-pyrrol-3-yl)-pyrimidin-2-yl]-amine] displayed a melting point of 153.3 to 156.8 °C. Besides, on CDK2/cyclin E (setting [1]), the IC50 is under 5 µM. In addition, the IC50 on CDK2/cyclin E (read-out: CDK2/cyclin E (IC50)) amounted to 1.3 µM.
As to `Cc1c[nH]c(C)c1-c1ccnc(Nc2ccc(O)cc2)n1` [Compound 7, 4-[4-(2,4-Dimethyl-1H-pyrrol-3-yl)-pyrimidin-2-ylamino]-phenol], the melting point is 189.5 to 193.4 °C. The IC50 at CDK2/cyclin E (setting [1]) is under 5 µM. Also, at CDK2/cyclin E (read-out: CDK2/cyclin E (IC50)), the IC50 is 2.9 µM.
`Cc1c[nH]c(C)c1-c1ccnc(Nc2cccc(O)c2)n1` [Compound 8, 3-[4-(2,4-Dimethyl-1H-pyrrol-3-yl)-pyrimidin-2-ylamino]-phenol] gave a melting point of 169 to 174.6 °C. At CDK2/cyclin E (setting [1]), the IC50 is under 5 µM. In addition, at CDK2/cyclin E (read-out: CDK2/cyclin E (IC50)), the IC50 worked out at 1.4 µM.
The compound `Cc1c[nH]c(C)c1-c1ccnc(Nc2ccc(F)cc2F)n1` [Compound 9, (2,4-Difluoro-phenyl)-[4-(2,4-dimethyl-1H-pyrrol-3-yl)-pyrimidin-2-yl]-amine] had a melting point of 219 to 220 °C.
In turn, `Cc1c[nH]c(C)c1-c1ccnc(Nc2ccc(Cl)cc2Cl)n1` [Compound 10, (2,4-Dichloro-phenyl)-[4-(2,4-dimethyl-1H-pyrrol-3-yl)-pyrimidin-2-yl]-amine] registered a melting point of 158.5 to 159.7 °C.
Compound `Cc1c[nH]c(C)c1-c1ccnc(Nc2ccc(Cl)c(C(F)(F)F)c2)n1` [Compound 11, (4-Chloro-3-trifluoromethyl-phenyl)-[4-(2,4-dimethyl-1H-pyrrol-3-yl)-pyrimidin-2-yl]-amine] yielded a melting point of 187.7 to 190.7 °C.
Turning to `Cc1c[nH]c(C)c1-c1ccnc(Nc2cccc(C(F)(F)F)c2)n1` [Compound 13, [4-(2,4-Dimethyl-1H-pyrrol-3-yl)-pyrimidin-2-yl]-(3-trifluoromethyl-phenyl)-amine], the melting point lay in the range of 152.7 to 154.3 °C.
The compound `Cc1c[nH]c(C)c1-c1ccnc(Nc2ccc(I)c(Cl)c2)n1` [Compound 16, (3-Chloro-4-iodo-phenyl)-[4-(2,4-dimethyl-1H-pyrrol-3-yl)-pyrimidin-2-yl]-amine] came in with a melting point of 185 to 187.4 °C. The IC50 on CDK2/cyclin E (setting [1]) is under 5 µM. The IC50 on CDK2/cyclin E (read-out: CDK2/cyclin E (IC50)) came out at 1.52 µM. Further, the IC50 in the series with A549 amounted to 4.39 µM. The “anti-proliferative activity” value in the series on human tumour cell lines was “particularly effective anti-proliferative agents”.
Regarding `Cc1c[nH]c(C)c1-c1ccnc(Nc2ccc(I)c(F)c2)n1` [Compound 17, [4-(2,4-Dimethyl-1H-pyrrol-3-yl)-pyrimidin-2-yl]-(3-fluoro-4-iodo-phenyl)-amine], the melting point is 200 to 202 °C. Also, the IC50 on CDK2/cyclin E (setting [1]) was under 5 µM. Besides, at CDK2/cyclin E (read-out: CDK2/cyclin E (IC50)), the IC50 was 1.73 µM.
As to `Cc1[nH]c(C#N)c(C)c1-c1ccnc(Nc2cccc([N+](=O)[O-])c2)n1` [Compound 31, 3,5-Dimethyl-4-[2-(3-nitro-phenylamino)-pyrimidin-4-yl]-1H-pyrrole-2-carbonitrile], the “anti-proliferative activity” value with human tumour cell lines is reported as “particularly effective anti-proliferative agents”.
Consider `Cc1[nH]c(C#N)c(C)c1-c1ccnc(Nc2ccc(O)cc2)n1` [Compound 33, 4-[2-(4-Hydroxy-phenylamino)-pyrimidin-4-yl]-3,5-dimethyl-1H-pyrrole-2-carbonitrile], for which, in the series with human tumour cell lines, the “anti-proliferative activity” value is reported as “particularly effective anti-proliferative agents”.
Consider `Cc1[nH]c(C#N)c(C)c1-c1ccnc(Nc2cccc(O)c2)n1` [Compound 36, 4-[2-(3-Hydroxy-phenylamino)-pyrimidin-4-yl]-3,5-dimethyl-1H-pyrrole-2-carbonitrile], for which the IC50 at CDK2/cyclin E (setting [1]) was under 0.5 µM; with Saos-2 it was 0.9 µM. Moreover, the “anti-proliferative activity” value in the series on human tumour cell lines is listed as “particularly effective anti-proliferative agents”.
On to `Cc1ccc(Nc2nccc(-c3c(C)[nH]c(C#N)c3C)n2)cc1[N+](=O)[O-]` [Compound 37, 3,5-Dimethyl-4-[2-(4-methyl-3-nitro-phenylamino)-pyrimidin-4-yl]-1H-pyrrole-2-carbonitrile], for which the “anti-proliferative activity” value with human tumour cell lines is recorded as “particularly effective anti-proliferative agents”.
For the compound `Cc1ccc(Nc2nccc(-c3c(C)[nH]c(C#N)c3C)n2)cc1O` [Compound 40, 4-[2-(3-Hydroxy-4-methyl-phenylamino)-pyrimidin-4-yl]-3,5-dimethyl-1H-pyrrole-2-carbonitrile], in the series on human tumour cell lines, the “anti-proliferative activity” value is given as “particularly effective anti-proliferative agents”.
Still for that read-out and setting: under `Cc1cc(Nc2nccc(-c3c(C)[nH]c(C#N)c3C)n2)ccc1F` [Compound 41, 4-[2-(4-Fluoro-3-methyl-phenylamino)-pyrimidin-4-yl]-3,5-dimethyl-1H-pyrrole-2-carbonitrile] stands “particularly effective anti-proliferative agents”; under `Cc1[nH]c(C(N)=O)c(C)c1-c1ccnc(Nc2ccc(F)cc2)n1` [Compound 44, 4-[2-(4-Fluoro-phenylamino)-pyrimidin-4-yl]-3,5-dimethyl-1H-pyrrole-2-carboxylic acid amide], “particularly effective anti-proliferative agents”.
As to `Cc1cn(C)c(C)c1-c1ccnc(Nc2ccc(F)cc2)n1` [Compound 46, (4-Fluoro-phenyl)-[4-(1,2,4-trimethyl-1H-pyrrol-3-yl)-pyrimidin-2-yl]-amine], the IC50 is under 5 µM on CDK2/cyclin E (setting [1]) and 1.79 µM at CDK2/cyclin E (read-out: CDK2/cyclin E (IC50)). For the same compound, in the series with human tumour cell lines, the “anti-proliferative activity” value is given as “particularly effective anti-proliferative agents”.
As for `Cc1[nH]c([N+](=O)[O-])c(C)c1-c1ccnc(Nc2ccc(F)cc2)n1` [Compound 47, [4-(2,4-Dimethyl-5-nitro-1H-pyrrol-3-yl)-pyrimidin-2-yl]-(4-fluoro-phenyl)-amine], in the series on human tumour cell lines, the “anti-proliferative activity” value is “particularly effective anti-proliferative agents”.
As for `Cc1[nH]c(Br)c(C)c1-c1ccnc(Nc2ccc(F)cc2)n1` [Compound 50, [4-(5-Bromo-2,4-dimethyl-1H-pyrrol-3-yl)-pyrimidin-2-yl]-(4-fluoro-phenyl)-amine], the IC50 at CDK2/cyclin E (setting [1]) is under 1 µM.
`Cc1[nH]c(Cl)c(C)c1-c1ccnc(Nc2ccc(F)cc2)n1` [Compound 52, [4-(5-Chloro-2,4-dimethyl-1H-pyrrol-3-yl)-pyrimidin-2-yl]-(4-fluoro-phenyl)-amine]: the IC50 on CDK2/cyclin E (setting [1]) is under 1 µM.
For the compound `CCN(CC)Cc1[nH]c(C)c(-c2ccnc(Nc3ccc(F)cc3)n2)c1C` [Compound 53, [4-(5-Diethylaminomethyl-2,4-dimethyl-1H-pyrrol-3-yl)-pyrimidin-2-yl]-(4-fluoro-phenyl)-amine], the IC50 on CDK2/cyclin E (setting [1]) was under 1 µM; on CDK2/cyclin E (read-out: CDK2/cyclin E (IC50)), 0.87 µM; in the series with A549, 0.97 µM; in the series with HT29, 1.31 µM; in the series with Saos-2, 1.61 µM. For the same compound, the “anti-proliferative activity” value in the series with human tumour cell lines was “particularly effective anti-proliferative agents”.
With `Cc1[nH]c(CN2CCOCC2)c(C)c1-c1ccnc(Nc2ccc(F)cc2)n1` [Compound 55, [4-(2,4-Dimethyl-5-morpholin-4-ylmethyl-1H-pyrrol-3-yl)-pyrimidin-2-yl]-(4-fluoro-phenyl)-amine], the melting point was 94.7 to 97.6 °C. The IC50 on CDK2/cyclin E (setting [1]) was under 1 µM. Besides, the IC50 on CDK2/cyclin E (read-out: CDK2/cyclin E (IC50)) worked out at 0.87 µM.
On to `Cc1[nH]c(CN2CCN(C)CC2)c(C)c1-c1ccnc(Nc2ccc(F)cc2)n1` [Compound 56, {4-[2,4-Dimethyl-5-(4-methyl-piperazin-1-ylmethyl)-1H-pyrrol-3-yl]-pyrimidin-2-yl}-(4-fluoro-phenyl)-amine], for which the IC50 is under 5 µM at CDK2/cyclin E (setting [1]); 1.51 µM at CDK2/cyclin E (read-out: CDK2/cyclin E (IC50)); 13.8 µM with A549; 5.09 µM in the series with HT29; 14.2 µM with Saos-2. The “anti-proliferative activity” value in the series on human tumour cell lines is recorded as “particularly effective anti-proliferative agents”.

As a reminder, the melting point is the temperature of the solid-liquid transition.
